The values that follow come from patent US11464770B2, “Anticancer pharmaceutical composition” (NATIONAL CANCER CENTER, priority 2016, dated 2022).

Where two headings read alike, the source gives them in different places.

Test [1] deals with bladder cancer cell lines. Kind of test: Cell based assay, cell viability (CellTiter-Glo), bladder cancer cell lines. To be noted: 72 hours treatment, 0 to 2 μM, CellTiter-Glo. The procedure, abridged:
(§1)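 Cells were trypsinized, seeded, and left 24 h before compound was added at 0 to 2 μM final. After a further 72 h of culture, viability was read by ATP-based luminescence.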

The test system of test [2] is pancreatic cancer cell lines (e.g. MIA PaCa-2). Kind of test: Cell based assay, cell viability (CellTiter-Glo), pancreatic cancer cell lines. The note with it: Homo sapiens. The procedure, abridged: as §1
A general note: In ATP-based viability assays light output follows the ATP content of the culture.

Test [3] has as its system melanoma cell lines. Briefly: Cell based assay, cell viability (CellTiter-Glo), melanoma cell lines. To be noted: Homo sapiens; LOX-IMVI cell line. The procedure, abridged:
as §1

The test system of test [4] is cervical carcinoma cell lines. Kind of test: Cell based assay, cell viability (CellTiter-Glo), cervical carcinoma cell lines. To be noted: Homo sapiens; HeLa cells.
Test [5] relates to RT4: human urinary bladder transitional cell papilloma. Kind of test: Cell based assay, cytotoxicity in RT4 papilloma cells (selectivity). The note with it: Homo sapiens, RT-4; RT4 cells.
[6] abbreviates: 5637 cells, read-out: IC50, bladder cancer cell line 5637.
The mark [7] stands for this setting: Homo sapiens, T-24, T24 cells, read-out: IC50, bladder cancer cell line T24.
The mark [8] stands for this setting: Homo sapiens, J82 cells, read-out: IC50, bladder cancer cell line J82.
Where [9] appears, read: pancreatic cancer cell line AsPC-1, 72 hours, read-out: IC50, AsPC-1.
The mark [10] stands for this setting: pancreatic cancer cell line BxPC-3, 72 hours, read-out: IC50, BxPC-3.
Where [11] appears, read: pancreatic cancer cell line CFPAC-1, 72 hours, read-out: IC50, CFPAC-1.
The mark [12] stands for this setting: pancreatic cancer cell line Capan-1, 72 hours, read-out: IC50, Capan-1.
The mark [13] stands for this setting: pancreatic cancer cell line Capan-2, 72 hours, read-out: IC50, Capan-2.
Where [14] appears, read: pancreatic cancer cell line MIA PaCa-2, 72 hours, read-out: IC50, MIA PaCa-2.
The mark [15] stands for this setting: pancreatic cancer cell line PANC-1, 72 hours, read-out: IC50, PANC-1.

Usually IC50 stands for the concentration that gives 50% inhibition. In the case of `CC(=O)c1c([S+]([O-])Cc2cccnc2)[nH]c2c(Br)ccc(Cl)c2c1=O` (centres unmarked) [Compound 84, 3-acetyl-8-bromo-5-chloro-2-((pyridin-3-ylmethyl)sulfinyl)quinolin-4(1H)-one], the IC50 was over 2000 nM in test [1] (setting [6]); 1030 nM in test [1] (setting [7]); over 2000 nM in test [1] (setting [8]); 1800 nM in test [2] (setting [9]); over 2000 nM in test [2] (setting [10]); over 10000 nM in test [2] (setting [11]). Moreover, the IC50 in test [2] (setting [12]) was 1500 nM; in test [2] (setting [13]), over 2000 nM; in test [2] (setting [14]), 920 nM; in test [2] (setting [15]) it was over 2000 nM; in test [3] it was 1450 nM; in test [4], over 10 µM. This compound also had an IC50 in test [5] of over 10 µM.

On to `Cc1cc(C[S+]([O-])c2[nH]c3c(Br)ccc(Cl)c3c(=O)c2C(=O)C(C)C)no1` (centres unmarked) [Compound 95, 8-bromo-5-chloro-3-isobutyryl-2-(((5-methylisoxazol-3-yl)methyl)sulfinyl)quinolin-4(1H)-one], for which the IC50 was 1230 nM in test [1] (setting [6]); 980 nM in test [1] (setting [7]); 1470 nM in test [1] (setting [8]); 1060 nM in test [2] (setting [9]); over 2000 nM in test [2] (setting [10]); over 10000 nM in test [2] (setting [11]). Also, the IC50 in test [2] (setting [12]) is 1250 nM; in test [2] (setting [13]), over 2000 nM; in test [2] (setting [14]), 590 nM; in test [2] (setting [15]), over 2000 nM; in test [3], 540 nM; in test [4], over 2 µM. Moreover, in test [5], the IC50 is over 10 µM.

On to `CC(=O)c1c(S(=O)(=O)Cc2ccccc2)[nH]c2c(Br)ccc(Cl)c2c1=O` [Compound 34, 3-acetyl-2-(benzylsulfonyl)-8-bromo-5-chloroquinolin-4(1H)-one], for which the IC50 in test [1] (setting [6]) is over 2000 nM; in test [1] (setting [7]), over 2000 nM; in test [1] (setting [8]), over 2000 nM; in test [2] (setting [9]), over 2000 nM; in test [2] (setting [10]), over 2000 nM; in test [2] (setting [11]) it was over 10000 nM. In addition, the IC50 in test [2] (setting [12]) was over 2000 nM; in test [2] (setting [13]), over 2000 nM; in test [2] (setting [14]) it was 1990 nM; in test [2] (setting [15]) it was over 2000 nM; in test [3], 1630 nM; in test [4], over 10 µM. Besides, the IC50 in test [5] is over 10 µM.

As for `CC(=O)c1c([S+]([O-])Cc2ccc(C(F)(F)F)o2)[nH]c2c(Br)ccc(Cl)c2c1=O` (centres unmarked) [Compound 72, 3-acetyl-8-bromo-5-chloro-2-(((5-(trifluoromethyl)furan-2-yl)methyl)sulfinyl)quinolin-4(1H)-one], the IC50 in test [1] (setting [6]) is 1640 nM; in test [1] (setting [7]), 1250 nM; in test [1] (setting [8]), 1630 nM; in test [2] (setting [9]) it was 2010 nM; in test [2] (setting [10]) it was over 2000 nM; in test [2] (setting [11]) it was over 10000 nM. Also, the IC50 was over 2000 nM in test [2] (setting [12]); over 2000 nM in test [2] (setting [13]); 1000 nM in test [2] (setting [14]); over 2000 nM in test [2] (setting [15]); 920 nM in test [3]; over 2 µM in test [4]. Moreover, the IC50 in test [5] is over 10 µM.

Take `CC(=O)c1c([S+]([O-])Cc2cc(F)cc(F)c2)[nH]c2c(Br)ccc(Cl)c2c1=O` (centres unmarked) [Compound 46, 3-acetyl-8-bromo-5-chloro-2-((3,5-difluorobenzyl)sulfinyl)quinolin-4(1H)-one]: the IC50 in test [1] (setting [6]) is 1770 nM; in test [1] (setting [7]), 1570 nM; in test [1] (setting [8]), over 2000 nM; in test [2] (setting [9]), over 2000 nM; in test [2] (setting [10]), over 2000 nM; in test [2] (setting [11]), over 10000 nM. For the same compound, the IC50 in test [2] (setting [12]) was over 2000 nM; in test [2] (setting [13]), over 2000 nM; in test [2] (setting [14]), 1570 nM; in test [2] (setting [15]), over 2000 nM; in test [3], 1570 nM; in test [4] it was over 10 µM. In test [5], this compound yielded an IC50 of over 10 µM.

As to `CC(=O)c1c([S+]([O-])Cc2ccc([N+](=O)[O-])cc2)[nH]c2c(Cl)ccc(Cl)c2c1=O` (centres unmarked) [Compound 57, 3-acetyl-5,8-dichloro-2-((4-nitrobenzyl)sulfinyl)quinolin-4(1H)-one], the IC50 is over 2000 nM in test [1] (setting [6]); 1790 nM in test [1] (setting [7]); over 2000 nM in test [1] (setting [8]); over 2000 nM in test [2] (setting [9]); over 2000 nM in test [2] (setting [10]); over 10000 nM in test [2] (setting [11]). Also, the IC50 is over 2000 nM in test [2] (setting [12]); over 2000 nM in test [2] (setting [13]); over 2000 nM in test [2] (setting [14]); over 2000 nM in test [2] (setting [15]); over 2000 nM in test [3]; over 10 µM in test [4]. The compound further displayed an IC50 in test [5] of over 10 µM.

`CC(=O)c1c([S+]([O-])Cc2ccc(C(C)(C)C)cc2)[nH]c2c(Br)ccc(Cl)c2c1=O` (centres unmarked) [Compound 60, 3-acetyl-8-bromo-2-((4-(tert-butyl)benzyl)sulfinyl)-5-chloroquinolin-4(1H)-one]: the IC50 was over 2000 nM in test [1] (setting [6]); 1720 nM in test [1] (setting [7]); over 2000 nM in test [1] (setting [8]); over 2000 nM in test [2] (setting [9]); over 2000 nM in test [2] (setting [10]); over 10000 nM in test [2] (setting [11]). The IC50 was over 2000 nM in test [2] (setting [12]); over 2000 nM in test [2] (setting [13]); over 2000 nM in test [2] (setting [14]); over 2000 nM in test [2] (setting [15]); 1670 nM in test [3]; over 10 µM in test [4]. In addition, the IC50 in test [5] is over 10 µM.

As for `COc1cc(S(F)(F)(F)(F)F)ccc1C[S+]([O-])c1[nH]c2c(Br)ccc(Cl)c2c(=O)c1C(C)=O` (centres unmarked) [Compound 75, 3-acetyl-8-bromo-5-chloro-2-((2-methoxy-4-(pentafluoro--sulfanyl)benzyl)sulfinyl)quinolin-4(1H)-one], the IC50 is 1570 nM in test [1] (setting [6]); 1330 nM in test [1] (setting [7]); 1480 nM in test [1] (setting [8]); over 2000 nM in test [2] (setting [9]); over 2000 nM in test [2] (setting [10]); over 10000 nM in test [2] (setting [11]). The IC50 is over 2000 nM in test [2] (setting [12]); over 2000 nM in test [2] (setting [13]); 1320 nM in test [2] (setting [14]); over 2000 nM in test [2] (setting [15]); 1040 nM in test [3]; over 10 µM in test [4]. In test [5], the IC50 is over 10 µM.

With `COC(=O)c1ccc(C[S+]([O-])c2[nH]c3c(Cl)ccc(Cl)c3c(=O)c2C(C)=O)o1` (centres unmarked) [Compound 89, methyl 5-(((3-acetyl-5,8-dichloro-4-oxo-1,4-dihydroquinolin-2-yl)sulfinyl)methyl)furan-2-carboxylate], the IC50 in test [1] (setting [6]) is over 2000 nM; in test [1] (setting [7]), 1750 nM; in test [1] (setting [8]) it was over 2000 nM; in test [2] (setting [9]) it was over 2000 nM; in test [2] (setting [10]) it was over 2000 nM; in test [2] (setting [11]), over 10000 nM. Further, the IC50 in test [2] (setting [12]) is over 2000 nM; in test [2] (setting [13]), over 2000 nM; in test [2] (setting [14]), 1410 nM; in test [2] (setting [15]) it was over 2000 nM; in test [3], 1650 nM; in test [4], over 10 µM. The same compound showed an IC50 in test [5] of over 10 µM.

With `CC(=O)c1c([S+]([O-])Cc2c(F)c(F)c(F)c(F)c2F)[nH]c2c(Br)ccc(Cl)c2c1=O` (centres unmarked) [Compound 78, 3-acetyl-8-bromo-5-chloro-2-(((perfluorophenyl)methyl)sulfinyl)quinolin-4(1H)-one], the half-maximal inhibitory concentration (IC50) is over 2000 nM in test [1] (setting [6]); 1800 nM in test [1] (setting [7]); over 2000 nM in test [1] (setting [8]); over 2000 nM in test [2] (setting [9]); over 2000 nM in test [2] (setting [10]); over 10000 nM in test [2] (setting [11]). Also, the IC50 in test [2] (setting [12]) is over 2000 nM; in test [2] (setting [13]), over 2000 nM; in test [2] (setting [14]), 1400 nM; in test [2] (setting [15]), over 2000 nM; in test [3], 1370 nM; in test [4] it was over 10 µM. Further, the IC50 in test [5] was over 10 µM.

As to `Cc1cc(C[S+]([O-])c2[nH]c3c(Cl)ccc(Cl)c3c(=O)c2C(=O)C(C)C)no1` (centres unmarked) [Compound 86, 5,8-dichloro-3-isobutyryl-2-(((5-methylisoxazol-3-yl)methyl)sulfinyl)quinolin-4(1H)-one], the IC50 in test [1] (setting [6]) was 1360 nM; in test [1] (setting [7]) it was 1020 nM; in test [1] (setting [8]) it was 1610 nM; in test [2] (setting [9]) it was 1280 nM; in test [2] (setting [10]), over 2000 nM; in test [2] (setting [11]), over 10000 nM. Also, the IC50 in test [2] (setting [12]) was 1260 nM; in test [2] (setting [13]), over 2000 nM; in test [2] (setting [14]), 640 nM; in test [2] (setting [15]) it was over 2000 nM; in test [3] it was 710 nM; in test [4] it was over 2 µM. In test [5], this compound returned an IC50 of over 10 µM.
